For assay [1], the target named is T1, sulfotransferase domain of human NDST-1 (Homo sapiens, UniProt P52848).
T1 construct: A plasmid containing the sulfotransferase domain of human NDST-1 fused to glutathione S-transferase; glutathione S-transferase (cleaved yes); made in house
T1 sequence (P52848 599-882 limits assumed): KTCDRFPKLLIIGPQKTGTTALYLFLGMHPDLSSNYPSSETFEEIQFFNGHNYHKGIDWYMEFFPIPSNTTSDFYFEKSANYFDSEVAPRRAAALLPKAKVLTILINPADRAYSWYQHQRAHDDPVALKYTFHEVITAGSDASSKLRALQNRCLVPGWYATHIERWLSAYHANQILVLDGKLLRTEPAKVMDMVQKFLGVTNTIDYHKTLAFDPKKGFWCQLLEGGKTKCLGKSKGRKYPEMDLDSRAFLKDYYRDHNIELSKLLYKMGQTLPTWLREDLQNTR
Description: Dot-blot assay for NDST-1 (sulfation of de-N-sulfated heparin with 35S-PAPS). Format: biochemical. The note with it: FIG. 5A Lineweaver-Burk plot. Here is the method:
For the NDST-1 assay, de-N-sulfated heparin (0.02-0.1 mg) and 0.1 μg of enzyme were added to 50 mM HEPES-NaOH (pH 7.0), 0.15 M NaCl, 0.75 mg/mL protamine, 0.4% Triton X-100, 15% glycerol in a total volume of 25 μL in a 96-well plate. Reactions were initiated with 0.15 μM ^35S-labeled PAPS (“^35S-PAPS”)(0.1-0.5 μCi per reaction), incubated at 25° C. for 15 min, and terminated by the addition of 30 μL of MeOH. A 15-μL aliquot was removed from each well and diluted 100-fold, and 15-25 μL were then transferred to the wells of the dot-blot apparatus. A vacuum was applied, and the wells were washed and eluted as described below. Control reactions with heat-killed (100° C., 5 min) enzyme were included to monitor background binding of ^35S-PAPS and ^35S-SO4^2− to the membrane after washing.
(§1) Hybond-N+ membranes were pre-wetted with H2O and Hybond-P membranes were pre-wetted with MeOH before assembling the dot-blot apparatus. The quenched and diluted reactions were added to the wells, and a vacuum was applied to load products onto the membrane. To elute ^35S-PAPS while retaining ^35S-labeled heparin or GlcNAc-PAA on the membrane, the wells were washed twice with 40 μL of PAPS elution buffer (EB) ((NH4)2SO4 pH 3.0), while maintaining a gentle vacuum. […] The amount of ^35S-labeled product associated with the membrane was then quantified by phosphorimaging.

Assay [2] concerns the target T2, GST-3 (Homo sapiens, UniProt Q8NCG5).
T2 sequence (Q8NCG5 1-386): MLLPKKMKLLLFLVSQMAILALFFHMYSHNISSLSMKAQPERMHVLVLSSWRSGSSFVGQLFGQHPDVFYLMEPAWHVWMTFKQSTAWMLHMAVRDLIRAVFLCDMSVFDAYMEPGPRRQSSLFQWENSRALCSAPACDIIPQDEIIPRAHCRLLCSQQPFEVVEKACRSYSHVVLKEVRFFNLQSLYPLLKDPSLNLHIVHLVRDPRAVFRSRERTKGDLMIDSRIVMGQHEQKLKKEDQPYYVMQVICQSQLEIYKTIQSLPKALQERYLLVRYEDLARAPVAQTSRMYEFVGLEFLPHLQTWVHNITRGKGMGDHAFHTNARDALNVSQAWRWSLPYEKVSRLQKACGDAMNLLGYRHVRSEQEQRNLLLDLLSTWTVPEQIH
Description: Dot-blot assay for GST-3 (sulfation of β-GlcNAc-PAA with 35S-PAPS). To be noted: FIG. 5B Lineweaver-Burk plot. It is filed as biochemical. Here is the method: A typical assay included an appropriate volume of enzyme solution, 0.6-1.0 μg of β-GlcNAc-PAA, 0.1% Triton X-100, 10% glycerol, 4 mM Mg(OAc)2, 10 mM NaF, 1 mM ATP, in 30 mM HEPES-NaOH (pH 6.0), diluted to a total volume of 25 μL in a 96-well plate. Reactions were initiated with 2.0 μM ^35S-PAPS (0.1-0.5 μCi per reaction), incubated at 25° C. for 2 h, and terminated with 30 μL of MeOH. A 15-μL aliquot was removed from each well and diluted 100-fold, and 15-25 μL of the solution were transferred to the wells of the dot-blot apparatus. A vacuum was applied, and the wells were washed and eluted as described below. Control reactions with heat-killed enzyme were included to monitor background binding of ^35S-PAPS and ^35S-SO4^2− to the membrane after washing.
as §1

With `Nc1ncnc2c1ncn2[C@@H]1O[C@H](COP(=O)(O)O)[C@@H](OP(=O)(O)O)[C@H]1O` [3′,5′-ADP], the “mode of enzyme inhibition (double reciprocal plots of signal versus PAPS concentration)” value in assay [1] and in assay [2] was “competitive inhibitor” throughout.

The values above are taken from patent publication US6713274B2, “Method for identifying modulators of sulfotransferase activity” (The Regents of the University of California, priority 2002, dated 2004).
